Data published in patent publication US6440979B1, “Aryl isoguanines” (Euro-Celtique, S.A., priority 1994, dated 2002).
pIC50: −log10 of the molar value. Read-outs that look alike come from different tables or passages of the source.

Columns and labels:
[1] = biological target: T1, Type III PDE isolated from human platelets (Homo sapiens, UniProt Q14432); experiment: Type III PDE inhibition, hydrolysis of [3H]-cyclic AMP; type: biochemical
T1 construct: Fractions containing PDE III activity are pooled and dialyzed overnight; from tissue; host or cells: human platelets (100,000 x g supernatant, DEAE-Trisacryl M fraction)
T1 sequence (Q14432 whole entry): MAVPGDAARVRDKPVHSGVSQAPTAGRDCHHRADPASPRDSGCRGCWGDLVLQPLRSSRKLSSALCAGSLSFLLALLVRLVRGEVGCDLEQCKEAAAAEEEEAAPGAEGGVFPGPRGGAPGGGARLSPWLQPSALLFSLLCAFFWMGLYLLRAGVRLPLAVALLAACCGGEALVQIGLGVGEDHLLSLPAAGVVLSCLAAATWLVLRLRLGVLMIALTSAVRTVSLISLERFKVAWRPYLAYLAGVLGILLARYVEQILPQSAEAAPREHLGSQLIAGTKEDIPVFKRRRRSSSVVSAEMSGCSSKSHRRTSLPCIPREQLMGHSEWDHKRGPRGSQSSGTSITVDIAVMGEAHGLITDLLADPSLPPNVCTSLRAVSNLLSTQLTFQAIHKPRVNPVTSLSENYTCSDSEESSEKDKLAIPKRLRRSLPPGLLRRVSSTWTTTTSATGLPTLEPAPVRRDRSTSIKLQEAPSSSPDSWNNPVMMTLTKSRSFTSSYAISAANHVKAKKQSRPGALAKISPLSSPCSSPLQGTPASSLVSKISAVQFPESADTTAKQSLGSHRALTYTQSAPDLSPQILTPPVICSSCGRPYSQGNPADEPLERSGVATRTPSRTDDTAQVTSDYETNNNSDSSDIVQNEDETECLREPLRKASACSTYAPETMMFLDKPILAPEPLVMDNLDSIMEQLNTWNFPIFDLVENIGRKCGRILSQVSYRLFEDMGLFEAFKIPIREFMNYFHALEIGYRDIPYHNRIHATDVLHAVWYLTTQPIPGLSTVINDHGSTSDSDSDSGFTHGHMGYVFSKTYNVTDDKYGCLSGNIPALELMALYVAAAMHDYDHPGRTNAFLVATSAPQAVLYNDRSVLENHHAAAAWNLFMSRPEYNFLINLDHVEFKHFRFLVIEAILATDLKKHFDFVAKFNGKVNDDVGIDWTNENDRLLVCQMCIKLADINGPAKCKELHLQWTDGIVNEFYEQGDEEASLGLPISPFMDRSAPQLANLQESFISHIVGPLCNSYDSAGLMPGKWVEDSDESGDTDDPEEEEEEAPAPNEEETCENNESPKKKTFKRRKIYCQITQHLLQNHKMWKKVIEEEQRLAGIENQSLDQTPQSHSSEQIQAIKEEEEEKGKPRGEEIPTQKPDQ
Procedure: The Type III PDE is isolated from human platelets using a procedure similar to that previously described by Weishaar, R. E. et al., Biochem. Pharmacol., 35:787, 1986. Briefly, 1-2 units of platelets are suspended in an equal volume of buffer (20 mM Tris-HCl, pH 7.5, containing 2 mM magnesium acetate, 1 mM dithiothreitol, and 5 mM Na2 EDTA). The proteinase inhibitor phenylmethyl-sulfonyl fluoride (PMSF) is also included in this buffer at a final concentration of 200 μM. The suspension is homogenized using a polytron and the homogenate centrifuged at 100,000×g for 60 minutes. This and all subsequent procedures are performed at 0-4° C. The supernatant is then filtered through four layers of gauze and applied to a DEAE-Trisacryl M column, previously equilibrated with buffer B (20 mM Tris-HCl, pH 7.5, containing 1 mM magnesium acetate, 1 mM dithiothreitol and 200 μM PMSF). After application of the sample, the column is washed with several bed volumes of buffer B, after which the different forms of PDE are eluted from the column using two successive linear NaCl gradients (0.05-0.15 M, 300 ml total; 0.15-0.40 Ma 200 ml total); Five ml fractions are collected and assayed for cyclic AMP and cyclic GMP PDE activity., Fractions containing PDE III activity are pooled and dialyzed overnight against 4 L of buffer B. The dialyzed PDE III is then concentrated to 10% of the original volume, diluted to 50% with ethylene glycol monoethyl ether and stored at −20° C. PDE III can typically be retained for up to four weeks with little or no loss of activity.
(§1) Enzyme activity is assessed by measuring the hydrolysis of [(^3H]-cyclic AMP, as described by Thompson, W. J. et al., Adv. Cyclic Nucleotide Res. 10:69, 1979. The cyclic AMP concentration used in this assay is 0.2 μM, which approximates to the Km value. Protein concentration is adjusted to ensure that no more than 15% of the available substrate is hydrolyzed during the incubation period.
(§2) All test compounds are dissolved in dimethyl sulfoxide (final concentration of 2.5%). This concentration of dimethyl sulfoxide inhibits enzyme activity by approximately 10%.
(§3) The compounds are tested over concentration range: 0.1, 1, 10, 100 uM (n=1), and IC50 determinations are made using 5 appropriate concentrations (n=2).

[2] = biological target: T2, Type V PDE isolated from platelets (Homo sapiens, UniProt O76074); experiment: Type V PDE inhibition, hydrolysis of [3H]-cyclic GMP; type: biochemical; settings: cyclic GMP 0.2 uM; 2.5% DMSO
T2 construct: Fractions that contain PDE V are pooled and dialyzed overnight; from tissue
Procedure: The Type V PDE is isolated using a procedure similar to that previously described by Weishaar et al., Hypertension 15:528, (1990). Briefly, 1-2 units of platelets are suspended in an equal volume of buffer A (20 mM Tris-HCl, pH 7.5, containing 2 mM magnesium acetate, 1 mM dithiothreitol, and 5 mM Na2EDTA) using a polytron. The proteinase inhibitor phenylmethylsulfonyl fluoride (PMSF) are also included in this buffer at a final concentration of 200 uM. This and all subsequent procedures are performed at 0-4° C. The homogenate is then centrifuges at 100,000×g for 60 minutes. The supernatant is then removed and filtered through four layers of gauze and applied to a DEAE-Trisacryl M column. The column is washed with several bed volumes of buffer B (20 mM Tris-HCl, pH 7.5, containing 2 mM magnesium acetate, 1 mM diothiothreitol, and 200 uM PMSF) and eluted by two successive linear NaCl gradients (0.05-0.15 M, 300 ml total; 0.15-0.40 M, 200 ml total). Five ml fractions are collected and assayed for cyclic AMP and cyclic GMP PDE activity. Fractions that contain PDE V are pooled and dialyzed overnight against 4 L of buffer C (20 mm Tris-HCl, pH 7.5, containing 2 mM magnesium acetate and proteinase inhibitors). The dialyzed PDE V is then concentrated to 10% of the original volume, diluted to 50% with ethylene glycol monoethyl ether and stored at −20° C. PDE V can typically be retained for up to four weeks with little or no loss of activity.
Enzyme activity are assessed by measuring the hydrolysis of [^3H]-cyclic […], as described by Thompson et al. (Thompson, W. J., Teraski, W. L., Epstein, P. N., Strada, S. J.: Adv. Cyclic Nucleotide Res. 10:69, 1979). The cyclic GMP concentration used in this assay is 0.2 uM, which approximates to the Km value. Protein concentration is adjusted to ensure that no more than 15% of the available substrate is hydrolyzed during the incubation period.
All test compounds are dissolved in dimethyl sulfoxide (final concentration of 2.5%). […] The reference Type V PDE inhibitor zaprinast is evaluated with each assay.
as §3

[3] = test system: PDE IV isolated from bovine tracheal smooth muscle; experiment: Type IV PDE inhibition, hydrolysis of [3H]-cyclic AMP; type: biochemical; settings: cyclic AMP 0.2 μM; 2.5% DMSO
Excerpt: The PDE IV inhibitory compounds of the present invention may be examined for their PDE IV inhibitory effects via the techniques set forth in the following examples, wherein the ability of the compounds to inhibit PDE IV isolated from bovine tracheal smooth muscle is set forth.
The Type IV PDE is isolated from bovine tracheal smooth muscle using a procedure similar to that previously described by Silver, P. J. et al., Eur. J. Pharmacol. 150:85,1988. Briefly, smooth muscle from bovine trachea is minced and homogenized using a polytron in 10 volumes of an extraction buffer containing 10 mm Tris-acetate (pH 7.5), 2 mM magnesium chloride, 1 mM dithiothreitol and 2,000 units/ml of aprotinin. This and all subsequent procedures are performed at 0-4° C. The homogenate is sonicated and then centrifuged at 48,000×g for 30 minutes. The resulting supernatant is applied to a DEAE Trisacryl M column previously equilibrated with sodium acetate and dithiothreitol. After applications of the sample, the column is washed with sodium acetate/dithiothreitol, after which the different forms of PDE are eluted from the column using a linear Tris-HCl/NaCl gradient. Fractions containing Type IV PDE are collected, dialyzed and concentrated to 14% of the original volume. The concentrated fractions are diluted to 50% with ethylene glycol and stored at −20° C.
as §1, with “[^3H]-cyclic” for “[(^3H]-cyclic”, “approximates” for “approximates to”
as §2, §3

[4] = cyclic AMP 0.2 μM, 2.5% DMSO, read-out: PDE ACTIVITY IC50 PDE III

SMILES | melting point | pIC50 [1, 4] | pIC50 ([1]; read-out: IC50 for PDE III inhibition) | pIC50 [2] | pIC50 [3]
COc1ccc(Cn2c(=O)[nH]c(=S)c3[nH]c(C(C)C)nc32)cc1OC1CCCC1 (hydrate or solvate) [Ex. 1, 3-(3-Cyclopentyloxy-4-methoxy-benzyl)-8-isopropyl-6-thioxanthine] | 192 to 193 °C | – | – | – | –
COc1ccc(Cn2c(=O)[nH]c(=S)c3[nH]c(C(C)C)nc32)cc1OC1CCCC1 [Ex. 1, 3-(3-Cyclopentyloxy-4-methoxy-benzyl)-8-isopropyl-6-thioxanthine] | – | 4.60 | ~4.60 | 4.59 | –
O=c1[nH]c(=S)c2[nH]cnc2n1Cc1ccc(Cl)cc1 [Ex. 2, 3-(4-Chlorobenzyl)-6-thioxanthine] | 313 to 317 °C | 4.60 | – | – | 4.11
CC(C)c1nc2c([nH]1)c(=S)[nH]c(=O)n2Cc1ccncc1 [Ex. 3, 8-Isopropyl-3-(4-picolyl)-6-thioxanthine] | 310 to 314 °C (dec.) | 3.67 | – | – | 4.74
CC(C)c1nc2c([nH]1)c(=S)[nH]c(=O)n2Cc1cccc(Cl)c1 [Ex. 4, 3-(3-Chlorobenzyl)-8-isopropyl-6-thioxanthine] | 218 to 220 °C | 4.36 | – | 6.15 | 5.39
CC(C)c1nc2c([nH]1)c(=S)[nH]c(=O)n2Cc1ccc(Cl)cc1 [Ex. 5a, 3-(4-Chlorobenzyl)-8-isopropyl-6-thioxanthine] | – | 4.54 | – | 5.70 | 5.07
CCNc1nc(=O)n(Cc2ccc(Cl)cc2)c2nc(C(C)C)[nH]c12 [Ex. 5b, 3-(4-Chlorobenzyl)-N^6-ethyl-8-isopropyl-isoguanine] | – | 3.50 | – | 6.30 | 5.03
CCCNc1nc(=O)n(CC2CC2)c2nc(C(C)C)[nH]c12 [Ex. 6, 3-Cyclopropylmethyl-8-isopropyl-N^6-propyl-isoguanine] | 208 to 210 °C | 3.31 | – | – | 4.62
CCNc1nc(=O)n(CC)c2nc(C3CC3)[nH]c12 [Ex. 7, 8-Cyclopropyl-3, N^6-diethyl-isoguanine] | – | 3.68 | – | – | 4.29
CCn1c(=O)[nH]c(=S)c2[nH]c(Cc3ccc(OC)c(OC4CCCC4)c3)nc21 [Ex. 8, 8-(3-cyclopentyloxy-4-methoxybenzyl)-3-ethyl-6-thio-xanthine] | 195 to 197 °C | 4.55 | – | 4.62 | 5.40
CCCn1c(=O)[nH]c(=S)c2[nH]c(Cc3ccc(OC)c(OC)c3)nc21 [Ex. 9, 8-(3,4-dimethoxybenzyl)-3-propyl-6-thio-xanthine] | 237 to 239 °C | 4.63 | – | – | 5.07
CCCn1c(=O)[nH]c(=S)c2[nH]c(Cc3ccc4ccccc4c3)nc21 [Ex. 10, 8-(2-naphthylmethyl)-3-propyl-6-thio-xanthine] | 220 to 223 °C | 5.57 | – | 5.42 | 5.55
CC(C)c1nc2c([nH]1)c(=S)[nH]c(=O)n2-c1cccc(Cl)c1 [Ex. 11, 3-(3-Chlorophenyl)-8-isopropyl-6-thioxanthine] | – | 3.51 | – | 4.18 | –
COc1ccc(C2CNC(=O)C2)cc1OC1CCCC1 (centres unmarked) [Rolipram, reference compound] | – | 3.10 | – | – | 5.59
CCNc1nc(=O)n(Cc2ccc(OC)c(OC3CCCC3)c2)c2nc(C(C)C)[nH]c12 [compound 12, 3-(3-Cyclopentyloxy-4-methoxy-benzyl)-N^6-ethyl-8-isopropyl-isoguanine] | 110 to 115 °C | – | – | – | –
